Measurements: ChEMBL document CHEMBL1201862, “PubChem BioAssay data set” (2004)
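Tested at 5 concentrations; 48 h exposure; 96-well plates; endpoints linearly interpolated, else capped at highest concentration. GI50 is the concentration that inhibits growth by half.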 The source made the active and inactive calls. Cut-off read from the data, not from the text of the source: active = GI50 up to about 1.1 µM and inactive = higher.

Columns and labels:
Assay in all cases: NCI tumour cell line growth inhibition, 48 h
786-0 = system: 786-0
A498 = system: A498
A549 = system: A549
ACHN = system: ACHN
BT-549 = system: BT-549
CAKI-1 = system: CAKI-1
CCRF-CEM = system: CCRF-CEM
COLO 205 = system: COLO 205
DU-145 = system: DU-145
EKVX = system: EKVX
HCC 2998 = system: HCC 2998
HCT-116 = system: HCT-116
HCT-15 = system: HCT-15
HL-60 = system: HL-60
HOP-62 = system: HOP-62
HOP-92 = system: HOP-92
HT-29 = system: HT-29
Hs-578T = system: Hs-578T
IGROV-1 = system: IGROV-1
K562 = system: K562
KM12 = system: KM12
LOX IMVI = system: LOX IMVI
M14 = system: M14
MCF7 = system: MCF7
MDA-MB-231 = system: MDA-MB-231
MDA-MB-435 = system: MDA-MB-435
MDA-N = system: MDA-N
MOLT-4 = system: MOLT-4
Malme-3M = system: Malme-3M
NCI-H226 = system: NCI-H226
NCI-H23 = system: NCI-H23
NCI-H460 = system: NCI-H460
NCI-H522 = system: NCI-H522
NCI/ADR-RES = system: NCI/ADR-RES
OVCAR-3 = system: OVCAR-3
OVCAR-4 = system: OVCAR-4
OVCAR-5 = system: OVCAR-5
OVCAR-8 = system: OVCAR-8
PC-3 = system: PC-3
RPMI-8226 = system: RPMI-8226
RXF 393 = system: RXF 393
SF-268 = system: SF-268
SF-295 = system: SF-295
SF-539 = system: SF-539
SK-MEL-28 = system: SK-MEL-28
SK-MEL-2 = system: SK-MEL-2
SK-MEL-5 = system: SK-MEL-5
SK-OV-3 = system: SK-OV-3
SN12C = system: SN12C
SNB-19 = system: SNB-19
SNB-75 = system: SNB-75
SW-620 = system: SW-620
T47D = system: T47D
TK-10 = system: TK-10
U-251 = system: U-251
UACC-257 = system: UACC-257
UACC-62 = system: UACC-62
UO-31 = system: UO-31
SR = system: SR

## CC1CC(C)[C@H](O)C([C@H](O)CC2CC(=O)N(C)C(=O)C2)C1 (some centres undefined)
786-0
  GI50: > 100 µM (inactive)
A498
  GI50: > 100 µM (inactive)
A549
  GI50: > 100 µM (inactive)
ACHN
  GI50: > 100 µM (inactive)
BT-549
  GI50: > 100 µM (inactive)
CAKI-1
  GI50: > 100 µM (inactive)
CCRF-CEM
  GI50: > 100 µM (inactive)
COLO 205
  GI50: > 100 µM (inactive)
DU-145
  GI50: > 100 µM (inactive)
EKVX
  GI50: > 100 µM (inactive)
HCC 2998
  GI50: > 100 µM (inactive)
HCT-116
  GI50: > 100 µM (inactive)
HCT-15
  GI50: > 100 µM
HL-60
  GI50: > 100 µM (inactive)
HOP-62
  GI50: > 100 µM (inactive)
HOP-92
  GI50: 32.3 µM (inactive)
HT-29
  GI50: > 100 µM (inactive)
Hs-578T
  GI50: > 100 µM (inactive)
IGROV-1
  GI50: > 100 µM (inactive)
K562
  GI50: > 100 µM (inactive)
KM12
  GI50: > 100 µM (inactive)
LOX IMVI
  GI50: > 100 µM (inactive)
M14
  GI50: > 100 µM (inactive)
MCF7
  GI50: > 100 µM (inactive)
MDA-MB-231
  GI50: > 100 µM (inactive)
MDA-MB-435
  GI50: > 100 µM (inactive)
MDA-N
  GI50: > 100 µM (inactive)
MOLT-4
  GI50: > 100 µM (inactive)
Malme-3M
  GI50: > 100 µM (inactive)
NCI-H226
  GI50: > 100 µM (inactive)
NCI-H23
  GI50: > 100 µM (inactive)
NCI-H460
  GI50: > 100 µM (inactive)
NCI-H522
  GI50: 57 µM (inactive)
NCI/ADR-RES
  GI50: > 100 µM (inactive)
OVCAR-3
  GI50: > 100 µM (inactive)
OVCAR-4
  GI50: > 100 µM (inactive)
OVCAR-5
  GI50: > 100 µM (inactive)
OVCAR-8
  GI50: > 100 µM (inactive)
PC-3
  GI50: > 100 µM (inactive)
RPMI-8226
  GI50: > 100 µM (inactive)
RXF 393
  GI50: > 100 µM (inactive)
SF-268
  GI50: > 100 µM (inactive)
SF-295
  GI50: 82.4 µM (inactive)
SF-539
  GI50: > 100 µM (inactive)
SK-MEL-28
  GI50: > 100 µM (inactive)
SK-MEL-2
  GI50: > 100 µM (inactive)
SK-MEL-5
  GI50: > 100 µM (inactive)
SK-OV-3
  GI50: > 100 µM (inactive)
SN12C
  GI50: > 100 µM (inactive)
SNB-19
  GI50: > 100 µM (inactive)
SNB-75
  GI50: 95.1 µM (inactive)
SW-620
  GI50: > 100 µM (inactive)
T47D
  GI50: > 100 µM (inactive)
TK-10
  GI50: > 100 µM (inactive)
U-251
  GI50: > 100 µM (inactive)
UACC-257
  GI50: > 100 µM (inactive)
UACC-62
  GI50: > 100 µM (inactive)
UO-31
  GI50: > 100 µM (inactive)

## O=C1N=C(c2ccccc2)OC1C(=O)c1ccccc1 (centres undefined)
786-0
  GI50: > 100 µM (inactive)
A498
  GI50: > 100 µM (inactive)
A549
  GI50: > 100 µM (inactive)
ACHN
  GI50: > 100 µM (inactive)
BT-549
  GI50: > 100 µM (inactive)
CAKI-1
  GI50: > 100 µM (inactive)
CCRF-CEM
  GI50: > 100 µM (inactive)
COLO 205
  GI50: > 100 µM (inactive)
DU-145
  GI50: > 100 µM (inactive)
EKVX
  GI50: > 100 µM (inactive)
HCC 2998
  GI50: > 100 µM (inactive)
HCT-116
  GI50: > 100 µM (inactive)
HCT-15
  GI50: > 100 µM
HL-60
  GI50: > 100 µM (inactive)
HOP-62
  GI50: > 100 µM (inactive)
HT-29
  GI50: > 100 µM (inactive)
Hs-578T
  GI50: > 100 µM (inactive)
IGROV-1
  GI50: 46.5 µM (inactive)
K562
  GI50: > 100 µM (inactive)
KM12
  GI50: > 100 µM (inactive)
LOX IMVI
  GI50: > 100 µM (inactive)
M14
  GI50: > 100 µM (inactive)
MCF7
  GI50: > 100 µM (inactive)
MDA-MB-231
  GI50: > 100 µM (inactive)
MDA-MB-435
  GI50: > 100 µM (inactive)
MDA-N
  GI50: > 100 µM (inactive)
MOLT-4
  GI50: > 100 µM (inactive)
NCI-H226
  GI50: > 100 µM (inactive)
NCI-H23
  GI50: > 100 µM (inactive)
NCI-H460
  GI50: > 100 µM (inactive)
NCI-H522
  GI50: > 100 µM (inactive)
NCI/ADR-RES
  GI50: > 100 µM (inactive)
OVCAR-3
  GI50: > 100 µM (inactive)
OVCAR-4
  GI50: > 100 µM (inactive)
OVCAR-5
  GI50: > 100 µM (inactive)
OVCAR-8
  GI50: > 100 µM (inactive)
PC-3
  GI50: > 100 µM (inactive)
RPMI-8226
  GI50: > 100 µM (inactive)
RXF 393
  GI50: > 100 µM (inactive)
SF-268
  GI50: > 100 µM (inactive)
SF-295
  GI50: > 100 µM (inactive)
SK-MEL-28
  GI50: > 100 µM (inactive)
SK-MEL-2
  GI50: > 100 µM (inactive)
SK-MEL-5
  GI50: > 100 µM (inactive)
SK-OV-3
  GI50: > 100 µM (inactive)
SN12C
  GI50: > 100 µM (inactive)
SNB-19
  GI50: > 100 µM (inactive)
SNB-75
  GI50: > 100 µM (inactive)
SR
  GI50: > 100 µM (inactive)
SW-620
  GI50: > 100 µM (inactive)
T47D
  GI50: > 100 µM (inactive)
TK-10
  GI50: > 100 µM (inactive)
U-251
  GI50: > 100 µM (inactive)
UACC-257
  GI50: > 100 µM (inactive)
UACC-62
  GI50: > 100 µM (inactive)
UO-31
  GI50: > 100 µM (inactive)
